target: T1, ATM (Homo sapiens, UniProt Q13315); test: ATM inhibition test (phosphorylation of Chk2 generated by ionizing radiation, AlphaScreen SureFire); format: cell-based; conditions: phosphorylated Chk2 in NCI-H460 cells, ionizing radiation 8Gy, 1 hour after test compound treatment; read-out: ATM inhibitory activity
T1 construct: detecting phosphorylation of Chk2 in a human non-small cell lung cancer cell line NCI-H460 (ATCC company); host or cells: NCI-H460 human non-small cell lung cancer cells
T1 sequence (Q13315 whole entry): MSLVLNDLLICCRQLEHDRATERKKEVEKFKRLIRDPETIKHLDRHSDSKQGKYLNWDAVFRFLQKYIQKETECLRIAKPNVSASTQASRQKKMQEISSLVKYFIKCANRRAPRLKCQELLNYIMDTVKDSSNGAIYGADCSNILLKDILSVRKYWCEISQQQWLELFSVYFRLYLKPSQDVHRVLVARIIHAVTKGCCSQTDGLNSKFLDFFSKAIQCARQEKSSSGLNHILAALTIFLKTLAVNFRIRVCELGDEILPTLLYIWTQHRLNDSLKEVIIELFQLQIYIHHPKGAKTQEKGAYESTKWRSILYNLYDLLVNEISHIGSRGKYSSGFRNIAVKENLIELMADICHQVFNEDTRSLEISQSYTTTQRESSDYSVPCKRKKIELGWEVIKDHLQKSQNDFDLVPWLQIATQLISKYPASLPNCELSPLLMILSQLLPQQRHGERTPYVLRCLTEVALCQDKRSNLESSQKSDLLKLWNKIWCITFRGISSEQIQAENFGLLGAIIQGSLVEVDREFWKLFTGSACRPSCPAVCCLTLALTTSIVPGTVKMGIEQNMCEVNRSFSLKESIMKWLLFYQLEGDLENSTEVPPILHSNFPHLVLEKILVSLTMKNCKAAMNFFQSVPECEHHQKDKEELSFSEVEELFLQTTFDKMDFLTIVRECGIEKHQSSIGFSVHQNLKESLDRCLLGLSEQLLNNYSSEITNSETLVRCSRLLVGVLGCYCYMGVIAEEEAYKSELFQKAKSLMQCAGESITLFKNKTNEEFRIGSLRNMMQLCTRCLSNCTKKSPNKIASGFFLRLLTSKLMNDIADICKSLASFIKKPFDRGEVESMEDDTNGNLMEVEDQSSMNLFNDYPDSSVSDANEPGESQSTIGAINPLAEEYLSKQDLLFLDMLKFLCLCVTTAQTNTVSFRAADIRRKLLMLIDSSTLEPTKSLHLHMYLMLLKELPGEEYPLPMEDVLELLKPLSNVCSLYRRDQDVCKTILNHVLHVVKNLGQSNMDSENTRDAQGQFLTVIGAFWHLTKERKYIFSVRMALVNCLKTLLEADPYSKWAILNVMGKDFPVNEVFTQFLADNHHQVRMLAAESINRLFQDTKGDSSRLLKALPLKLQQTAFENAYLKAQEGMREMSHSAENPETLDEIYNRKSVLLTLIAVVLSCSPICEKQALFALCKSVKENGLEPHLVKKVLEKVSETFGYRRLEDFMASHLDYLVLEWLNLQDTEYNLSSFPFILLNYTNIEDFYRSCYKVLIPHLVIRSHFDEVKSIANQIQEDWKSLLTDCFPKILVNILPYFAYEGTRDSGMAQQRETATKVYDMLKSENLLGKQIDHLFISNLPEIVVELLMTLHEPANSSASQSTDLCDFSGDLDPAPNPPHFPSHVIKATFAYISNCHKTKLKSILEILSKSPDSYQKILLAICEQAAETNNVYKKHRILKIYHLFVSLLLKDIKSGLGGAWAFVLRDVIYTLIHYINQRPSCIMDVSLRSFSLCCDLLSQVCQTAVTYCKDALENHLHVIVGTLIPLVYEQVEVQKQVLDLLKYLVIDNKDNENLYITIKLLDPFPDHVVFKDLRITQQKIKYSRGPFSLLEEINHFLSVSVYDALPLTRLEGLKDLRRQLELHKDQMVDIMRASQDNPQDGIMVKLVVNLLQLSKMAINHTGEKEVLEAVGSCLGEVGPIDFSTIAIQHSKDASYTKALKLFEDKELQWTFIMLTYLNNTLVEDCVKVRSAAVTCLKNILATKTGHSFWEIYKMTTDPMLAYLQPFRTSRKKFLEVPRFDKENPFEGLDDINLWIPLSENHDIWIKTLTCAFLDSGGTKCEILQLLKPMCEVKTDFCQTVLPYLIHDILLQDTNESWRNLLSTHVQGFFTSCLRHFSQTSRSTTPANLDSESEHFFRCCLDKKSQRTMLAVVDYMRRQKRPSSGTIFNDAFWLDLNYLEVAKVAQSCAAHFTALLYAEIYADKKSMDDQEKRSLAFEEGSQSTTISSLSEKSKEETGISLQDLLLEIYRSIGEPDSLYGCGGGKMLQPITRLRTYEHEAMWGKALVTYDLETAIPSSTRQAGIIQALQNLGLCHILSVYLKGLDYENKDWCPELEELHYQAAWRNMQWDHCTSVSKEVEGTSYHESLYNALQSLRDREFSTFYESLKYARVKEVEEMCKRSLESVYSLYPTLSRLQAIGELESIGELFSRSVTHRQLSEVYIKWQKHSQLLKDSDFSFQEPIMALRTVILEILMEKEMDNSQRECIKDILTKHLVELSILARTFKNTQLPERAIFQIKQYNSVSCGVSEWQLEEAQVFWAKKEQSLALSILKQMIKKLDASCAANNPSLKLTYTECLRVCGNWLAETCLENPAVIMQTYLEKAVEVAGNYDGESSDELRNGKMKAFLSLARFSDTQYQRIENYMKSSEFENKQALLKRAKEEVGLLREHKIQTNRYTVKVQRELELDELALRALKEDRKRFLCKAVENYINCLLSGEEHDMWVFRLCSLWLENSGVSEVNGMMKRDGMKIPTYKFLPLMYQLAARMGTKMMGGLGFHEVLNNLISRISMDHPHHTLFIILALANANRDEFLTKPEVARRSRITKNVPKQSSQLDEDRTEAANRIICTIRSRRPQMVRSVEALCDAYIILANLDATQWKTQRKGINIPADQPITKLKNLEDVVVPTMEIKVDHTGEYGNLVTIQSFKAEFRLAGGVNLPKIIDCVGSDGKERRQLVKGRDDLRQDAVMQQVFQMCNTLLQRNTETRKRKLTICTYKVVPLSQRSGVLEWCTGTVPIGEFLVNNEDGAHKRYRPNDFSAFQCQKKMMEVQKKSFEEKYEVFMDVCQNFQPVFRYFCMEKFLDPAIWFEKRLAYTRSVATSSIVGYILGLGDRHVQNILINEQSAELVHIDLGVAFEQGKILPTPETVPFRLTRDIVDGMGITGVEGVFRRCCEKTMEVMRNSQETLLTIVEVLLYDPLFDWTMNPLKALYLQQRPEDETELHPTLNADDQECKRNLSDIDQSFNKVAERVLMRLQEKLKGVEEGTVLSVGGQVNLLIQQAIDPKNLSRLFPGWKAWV
How it was run: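 Human NCI-H460 lung cancer cells were treated with compound for 1 h, then irradiated at 8Gy and incubated 1 h at 37° C. Phospho-Chk2 was quantified by AlphaScreen SureFire; inhibition % was normalised between irradiated untreated and non-irradiated untreated wells.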

SMILES	IC50
CC(=O)Nc1cncc(CNc2ccc3c(c2)Cc2cccc(-c4cc(N5CCOCC5)cc(=O)[nH]4)c2O3)c1 [Example 2-2-13, N-(5-(((5-(4-Morpholino-6-oxo-1,6-dihydropyridin-2-yl)-9H-xanthen-2-yl)amino)methyl)pyridin-3-yl)acetamide]	500 to 2000 nM
Nc1ncc(CNc2ccc3c(c2)Cc2cccc(-c4cc(N5CCOCC5)cc(=O)[nH]4)c2O3)cn1 [Example 2-2-15, 6-(7-(((2-Aminopyrimidin-5-yl)methyl)amino)-9H-xanthen-4-yl)-4-morpholino pyridin-2(1H)-one]	500 to 2000 nM
COc1ccncc1CNc1ccc2c(c1)Cc1cccc(-c3cc(N4CCOCC4)cc(=O)[nH]3)c1O2 [Example 2-2-34, 6-(7-(((4-Methoxypyridin-3-yl)methyl)amino)-9H-xanthen-4-yl)-4-morpholino pyridin-2(1H)-one]	500 to 2000 nM
COc1ccc(CNc2ccc3c(c2)Cc2cccc(-c4cc(N5CCOCC5)cc(=O)[nH]4)c2O3)nc1 [Example 2-2-42, 6-(7-(((5-Methoxypyridin-2-yl)methyl)amino)-9H-xanthen-4-yl)-4-morpholino pyridin-2(1H)-one]	100 to 500 nM
COCc1ccc(CNc2ccc3c(c2)Cc2cccc(-c4cc(N5CCOCC5)cc(=O)[nH]4)c2O3)cn1 [Example 2-2-43, 6-(7-(((6-(Methoxymethyl)pyridin-3-yl)methyl)amino)-9H-xanthen-4-yl)-4-morpholino pyridin-2(1H)-one]	100 to 500 nM
Cn1cc(CNc2ccc3c(c2)Cc2cccc(-c4cc(N5CCOCC5)cc(=O)[nH]4)c2O3)ccc1=O [Example 2-2-45, 1-Methyl-5-(((5-(4-morpholino-6-oxo-1,6-dihydropyridin-2-yl)-9H-xanthen-2-yl)amino)methyl) pyridin-2(1H)-one]	500 to 2000 nM
Cn1c(CNc2ccc3c(c2)Cc2cccc(-c4cc(N5CCOCC5)cc(=O)[nH]4)c2O3)cccc1=O [Example 2-2-47, 1-Methyl-6-(((5-(4-morpholino-6-oxo-1,6-dihydropyridin-2-yl)-9H-xanthen-2-yl)amino)methyl) pyridin-2(1H)-one]	500 to 2000 nM
Cn1cc(-c2cncc(CNc3ccc4c(c3)Cc3cccc(-c5cc(N6CCOCC6)cc(=O)[nH]5)c3O4)c2)cn1 [Example 2-2-49, 6-(7-(((5-(1-Methyl-1H-pyrazol-4-yl)pyridin-3-yl)methyl)amino)-9H-xanthen-4-yl)-4-morpholino pyridin-2(1H)-one]	100 to 500 nM
O=C(N[C@H]1CC[C@H](Nc2ccc3c(c2)Cc2cccc(-c4cc(N5CCOCC5)cc(=O)[nH]4)c2O3)CC1)OCc1ccccc1 [Example 2-2-54, Benzyl ((trans)-4-((5-(4-morpholino-6-oxo-1,6-dihydropyridin-2-yl)-9H-xanthen-2-yl)amino)cyclohexyl)carbamate]	500 to 2000 nM
O=c1cc(N2CCOCC2)cc(-c2cccc3c2Oc2ccc(NCc4cncc(-n5cccn5)c4)cc2C3)[nH]1 [Example 2-2-55, 6-(7-(((5-(1H-Pyrazol-1-yl)pyridin-3-yl)methyl)amino)-9H-xanthen-4-yl)-4-morpholino pyridin-2 (1H)-one]	100 to 500 nM
O=c1cc(N2CCOCC2)cc(-c2cccc3c2Oc2ccc(NCc4cncc(-n5ccnc5)c4)cc2C3)[nH]1 [Example 2-2-56, 6-(7-(((5-(1H-Imidazol-1-yl)pyridin-3-yl)methyl)amino)-9H-xanthen-4-yl)-4-morpholino pyridin-2 (1H)-one]	100 to 500 nM
O=c1cc(N2CCOCC2)cc(-c2cccc3c2Oc2ccc(NCc4cncc(-c5cccnc5)c4)cc2C3)[nH]1 [Example 2-2-57, 6-(7-(([3,3′-Bipyridin]-5-ylmethyl)amino)-9H-xanthen-4-yl)-4-morpholino pyridin-2 (1H)-one]	100 to 500 nM
O=c1cc(N2CCOCC2)cc(-c2cccc3c2Oc2ccc(NCc4cncc(-n5cncn5)c4)cc2C3)[nH]1 [Example 2-2-59, 6-(7-(((5-(1H-1,2,4-Triazol-1-yl)pyridin-3-yl)methyl)amino)-9H-xanthen-4-yl)-4-morpholino pyridin-2(1H)-one]	100 to 500 nM
O=c1cc(N2CCOCC2)cc(-c2cccc3c2Oc2ccc(NCc4cncc(C5=CCCC5)c4)cc2C3)[nH]1 [Example 2-2-61, 6-(7-(((5-(Cyclopent-1-en-1-yl)pyridin-3-yl)methyl)amino)-9H-xanthen-4-yl)-4-morpholino pyridin-2(1H)-one]	100 to 500 nM
O=c1cc(N2CCOCC2)cc(-c2cccc3c2Oc2ccc(NC4CCC5(CC4)OCCO5)cc2C3)[nH]1 [Example 2-2-62, 6-(7-(1,4-Dioxaspiro[4.5]decan-8-ylamino)-9H-xanthen-4-yl)-4-morpholino pyridin-2(1H)-one]	100 to 500 nM
O=c1cc(N2CCOCC2)cc(-c2cccc3c2Oc2ccc(NCc4cncc(N5CCCC5)c4)cc2C3)[nH]1 [Example 2-2-63, 4-Morpholino-6-(7-(((5-(pyrrolidin-1-yl)pyridin-3-yl)methyl)amino)-9H-xanthen-4-yl)pyridin-2(1H)-one]	100 to 500 nM
CC(C)Oc1cncc(CNc2ccc3c(c2)Cc2cccc(-c4cc(N5CCOCC5)cc(=O)[nH]4)c2O3)c1 [Example 2-2-65, 6-(7-(((5-Isopropoxypyridin-3-yl)methyl)amino)-9H-xanthen-4-yl)-4-morpholino pyridin-2(1H)-one]	100 to 500 nM

The remaining lines, values ahead:

IC50	SMILES
100 to 500 nM	O=c1cc(N2CCOCC2)cc(-c2cccc3c2Oc2ccc(NCc4ccnc(Cl)c4F)cc2C3)[nH]1 [Example 2-2-19, 6-(7-(((2-Chloro-3-fluoropyridin-4-yl)methyl)amino)-9H-xanthen-4-yl)-4-morpholino pyridin-2(1H)-one]
100 to 500 nM	Nc1ncccc1CNc1ccc2c(c1)Cc1cccc(-c3cc(N4CCOCC4)cc(=O)[nH]3)c1O2 [Example 2-2-21, 6-(7-(((2-Aminopyridin-3-yl)methyl)amino)-9H-xanthen-4-yl)-4-morpholino pyridin-2(1H)-one]
< 100 nM	O=c1cc(N2CCOCC2)cc(-c2cccc3c2Oc2ccc(NC4CCN(c5ccncc5)CC4)cc2C3)[nH]1 [Example 2-2-22, 4-Morpholino-6-(7-((1-(pyridin-4-yl)piperidin-4-yl)amino)-9H-xanthen-4-yl) pyridin-2(1H)-one]
100 to 500 nM	CCOc1ccc(CNc2ccc3c(c2)Cc2cccc(-c4cc(N5CCOCC5)cc(=O)[nH]4)c2O3)cn1 [Example 2-2-23, 6-(7-(((6-Ethoxypyridin-3-yl)methyl)amino)-9H-xanthen-4-yl)-4-morpholino pyridin-2(1H)-one]
100 to 500 nM	Cc1cccc(CNc2ccc3c(c2)Cc2cccc(-c4cc(N5CCOCC5)cc(=O)[nH]4)c2O3)n1 [Example 2-2-24, 6-(7-(((6-Methylpyridin-2-yl)methyl)amino)-9H-xanthen-4-yl)-4-morpholino pyridin-2(1H)-one]
100 to 500 nM	O=c1cc(N2CCOCC2)cc(-c2cccc3c2Oc2ccc(NCc4ccncc4Cl)cc2C3)[nH]1 [Example 2-2-25, 6-(7-(((3-Chloropyridin-4-yl)methyl)amino)-9H-xanthen-4-yl)-4-morpholino pyridin-2 (1H)-one]
100 to 500 nM	CNc1ncccc1CNc1ccc2c(c1)Cc1cccc(-c3cc(N4CCOCC4)cc(=O)[nH]3)c1O2 [Example 2-2-26, 6-(7-(((2-(Methylamino)pyridin-3-yl)methyl)amino)-9H-xanthen-4-yl)-4-morpholino pyridin-2(1H)-one]
100 to 500 nM	O=c1cc(N2CCOCC2)cc(-c2cccc3c2Oc2ccc(NC4CCN(c5ccccn5)CC4)cc2C3)[nH]1 [Example 2-2-27, 4-Morpholino-6-(7-((1-(pyridin-2-yl)piperidin-4-yl)amino)-9H-xanthen-4-yl) pyridin-2(1H)-one]
100 to 500 nM	O=c1cc(N2CCOCC2)cc(-c2cccc3c2Oc2ccc(NC4CCN(c5cccnc5)CC4)cc2C3)[nH]1 [Example 2-2-28, 4-Morpholino-6-(7-((l-(pyridin-3-yl)piperidin-4-yl)amino)-9H-xanthen-4-yl) pyridin-2(1H)-one]
< 100 nM	O=c1cc(N2CCOCC2)cc(-c2cccc3c2Oc2ccc(NCc4cnc5c(c4)OCCO5)cc2C3)[nH]1 [Example 2-2-29, 6-(7-(((2,3-Dihydro-[1,4]dioxino[2,3-b]pyridin-7-yl)methyl)amino)-9H-xanthen-4-yl)-4-morpholino pyridin-2 (1H)-one]
100 to 500 nM	O=c1cc(N2CCOCC2)cc(-c2cccc3c2Oc2ccc(NCc4cnc5c(c4)OCO5)cc2C3)[nH]1 [Example 2-2-30, 6-(7-(([1,3]Dioxolo[4,5-b]pyridin-6-ylmethyl)amino)-9H-xanthen-4-yl)-4-morpholino pyridin-2(1H)-one]
100 to 500 nM	O=c1cc(N2CCOCC2)cc(-c2cccc3c2Oc2ccc(NCc4ccc(-n5cccn5)nc4)cc2C3)[nH]1 [Example 2-2-31, 6-(7-(((6-(1H-Pyrazol-1-yl)pyridin-3-yl)methyl)amino)-9H-xanthen-4-yl)-4-morpholino pyridin-2(1H)-one]
100 to 500 nM	COc1cccc(CNc2ccc3c(c2)Cc2cccc(-c4cc(N5CCOCC5)cc(=O)[nH]4)c2O3)n1 [Example 2-2-32, 6-(7-(((6-Methoxypyridin-2-yl)methyl)amino)-9H-xanthen-4-yl)-4-morpholino pyridin-2(1H)-one]
100 to 500 nM	COCc1cncc(CNc2ccc3c(c2)Cc2cccc(-c4cc(N5CCOCC5)cc(=O)[nH]4)c2O3)c1 [Example 2-2-33, 6-(7-(((5-(Methoxymethyl)pyridin-3-yl)methyl)amino)-9H-xanthen-4-yl)-4-morpholino pyridin-2(1H)-one]
< 100 nM	O=c1cc(N2CCOCC2)cc(-c2cccc3c2Oc2ccc(NCc4cnc5occc5c4)cc2C3)[nH]1 [Example 2-2-44, 6-(7-((Furo[2,3-b]pyridin-5-ylmethyl)amino)-9H-xanthen-4-yl)-4-morpholino pyridin-2(1H)-one]
< 100 nM	O=c1cc(N2CCOCC2)cc(-c2cccc3c2Oc2ccc(NCc4cnc5ccccc5c4)cc2C3)[nH]1 [Example 2-2-46, 4-Morpholino-6-(7-((quinolin-3-ylmethyl)amino)-9H-xanthen-4-yl) pyridin-2(1H)-one]

From patent US9586951B2 (FUJIFILM Corporation, priority 2013, dated 2017)
